Measured values from patent US20220031652A1, “USE OF AN ORGANOMETALLIC COMPOUND AS A DNA-DEMETHYLATING AGENT” (UNIVERSITE DE LORRAINE, priority 2018, published 2022).

Tested on: MDA-MB231, T47D, T47D R+ doxo, U251 and U87 cells
Test: Crystal violet proliferation test at 2 μM, 48 h or 72 h
Format: cell-based
Procedure: Each cell line is seeded in 96-well plates (100 μL medium/well) according to the following conditions:
After 48 h or 72 h of treatment, the medium of each well is removed then a washing is carried out with 100 μL of PBS.
The cells are then fixed with 100 μL of paraformaldehyde 4% for 20 minutes, followed by two washings with 500 μL of PBS.
The percentage of cells adhered is highlighted by a crystal violet coloration.
100 μL of crystal violet at 0.1% (1/5 dilution in H2O of the stock solution: 0.5% crystal violet 2% filtered ethanol 0.22 μM) is added in each well.
After 30 minutes of incubation at ambient temperature, the wells are rinsed 3 times with distilled water, then correctly dried by patting on a sheet of absorbent paper.
100 μL of 10% acetic acid is then added to each well.
The plate is stirred until total solubilisation of the crystal violet crystals (around 10 minutes).

Which “inhibition of the proliferation (crystal violet)” value does the source give for `[Ru+2].c1ccc(-c2cc(-c3ccccn3)nc(-c3ccccn3)c2)cc1.c1ccc(-c2cc(-c3ccccn3)nc(-c3ccccn3)c2)cc1` [Ru] here?
The value was “does not lead to any inhibition of the proliferation”.
